We go through one compound from US11214561B2, “Histone methyltransferase EZH2 inhibitor, preparation method and pharmaceutical use thereof” (ANCUREALL PHARMACEUTICAL (SHANGHAI) CO., LTD., priority 2017, dated 2022).

One data set relates to Pfeiffer (EZH2 A677G). The data set is described as follows: In vitro 50% growth inhibition (GI50), MTT/CCK8, Pfeiffer cells. It counts as cell-based, Human. Particulars: Homo sapiens, Pfeiffer, 240 h; Drug treatment for 10 days.
The next data set deals with SU-DHL-8 (EZH2 WT). Briefly: In vitro 50% growth inhibition (GI50), MTT/CCK8, SU-DHL-8 cells. Particulars: Homo sapiens, SU-DHL-8, 144 h; Drug treatment for 6 days. It counts as cell-based.
Data set [1] concerns Pfeiffer cells (EZH2 A677G). The data set is described as follows: Compound washout effect on in vitro growth of Pfeiffer cells (irreversible inhibition). It counts as cell-based, Human. The following applies: for Pfeiffer cells growth rate (%) (10 days), Continuous: continuous treatment; for Pfeiffer cells growth rate (%) (10 days), Washout: washout after 12 h. How it is done: The test of the compound washout effect on the in vitro growth inhibition of human diffuse large cell B lymphoma lymphocyte Pfeiffer (ATCC) expressing EZH2 A677G mutant protein was performed as follows.
Log-phase Pfeiffer cells were centrifuged directly (1700 rpm, 3 min), and the supernatant was discarded and the cells were counted. Cells were prepared with the complete medium (2×10^4 cells per ml), inoculated to 96-well plates (Corning), 200 μl per well, and incubated overnight at 37° C., 5% CO2. […] The cells were further cultured for 12 h. The cells in half of the test wells were then collected by centrifugation (parallel to 2 wells), and washed three times with serum-free cell culture medium, and then resuspended in a same volume of complete cell culture medium (200 μl). It was further cultured together with the untreated cells for 10 days at 37° C., 5% CO2.

Data set [2] in a line: In vivo pharmacokinetics in rats. Particulars: SD rats. How it is done: Test Example 4 Study of In Vivo Pharmacokinetics of the Present Compounds in Rats
Male SD rats (Shanghai Sippr-BK Experimental Animal Co., Ltd) were purchased and kept in Shanghai University of Traditional Chinese Medicine animal center (approved by the ethics committee of Shanghai University of Traditional Chinese Medicine) for 7 days. The rats were randomly divided into 4 groups (˜220 g), 3 rats for each group. Animals were administered intravenously (iv) and orally (po). The rats in po group were starved for 12 hours before administration. After administration, blood was collected from the orbital venous plexus at 0 min (before administration), 2 min, 5 min, 15 min, 30 min, 1 h, 2 h, 4 h, 6 h, 8 h and 24 h. About 200 ul of blood was collected at each time point, and were collected in 1.5 ml centrifuge tube containing heparin sodium. The upper blood […] were collected by centrifugation (8000 rpm, 3 min) and stored at −80° C.
Preparation of test samples: 125.0 mg compound 34 or compound 35 was weighed and added with 4 ml ultrapure water, and 25 ul methanesulfonic acid was added with stirring. The mixture was further stirred until clear and transparent (pH ˜3.32). 1 ml of the above solution was added with 4 ml of ultra-pure water to obtain 5 mg/ml of compound 34 or compound 35 solution (pH=3.5).
Dose and mode of administration: single oral dose (100 mpk) and single intravenous dose (5 mpk).
Administration volume: 4 ml/kg (orally), 1 ml/kg (intravenously).
The plasma concentration of the compound was determined by LC-MS/MS (AB scexqtrap@4500 LCMS/MS system). Pharmacokinetic parameters were calculated by WinNonlin (a professional software). The experiment was repeated once.

On to `C=CC(=O)N1CCC(N(CC)c2cc(-c3ccc(CN4CCCCC4)cc3)cc(C(=O)NCc3c(C)cc(C)[nH]c3=O)c2C)CC1` [Example 34, N-(4,6-dimethyl-2-oxo-1,2-dihydro-pyridin-3-ylmethyl)-5-[(1-acryloyl-piperidin-4-yl)-ethyl-amino]-4-methyl-4′-(piperidin-1-ylmethyl)-[1,1′-biphenyl]-3-carboxamide], for which the GI50 – broadly, the concentration that inhibits growth by half – was 1 to 10 nM in the data set on Pfeiffer (EZH2 A677G) and more than 1000 nM in the data set on SU-DHL-8 (EZH2 WT). Also, the “Pfeiffer cells growth rate (%) (10 days), Continuous” value in data set [1] (Drug concentration 25 nM), in data set [1] (Drug concentration 50 nM) and in data set [1] (Drug concentration 100 nM) was 0% throughout. Moreover, the “Pfeiffer cells growth rate (%) (10 days), Washout” value in data set [1] (Drug concentration 25 nM), in data set [1] (Drug concentration 50 nM) and in data set [1] (Drug concentration 100 nM) was 0% throughout. For the same compound, the “reversibility of inhibitory effect on cell growth in vitro, in words” value in data set [1] (washout treatment of Pfeiffer cells) was “potential irreversible inhibitory effect”. Further, the “bioavailability, in words” value in data set [2] is “good bioavailability”. Also, in data set [2] (male, rat, plasma, IV 5 mg/kg, PO 100 mg/kg, methanesulfonic acid aqueous solution), the bioavailability (usually dose-corrected exposure relative to a reference, in per cent) came out at 48.8%.
